pIC50: −log10 of the molar value.
Assays:
[1] = tested on: BV-2; test: Cytotoxicity against mouse BV2 cells assessed as cell survival by MTT assay; format: cell-based
[2] = tested on: BV-2; test: Inhibition of LPS-induced NO production in mouse BV2 cells after 20 hrs by Griess assay; format: functional, cell-based; conditions: BV-2, 20 h

SMILES | pIC50 [2] | Activity [1]
CSC(=N)N.O=S(=O)(O)O | 5.60 | Non-Toxic
CC1=C2C[C@H]([C@@](C)(O)CO)CC[C@@]2(C)[C@H](O)CC1=O | 5.17 | Non-Toxic
CC(C)(O)c1ccc(CO)c(O)c1 | 4.82 | Non-Toxic

Further molecules by rising pIC50 [2], results first:

pIC50 [2] | SMILES | Activity [1]
4.75 | Cc1ccc([C@@H](C)CO)cc1O | Non-Toxic
4.85 | CC(C)(O)c1ccc(CO)c(O[C@@H]2O[C@H](CO)[C@@H](O)[C@H](O)[C@H]2O)c1 | Non-Toxic

— ChEMBL document CHEMBL4017454, “Bioactive terpenoids from Silybum marianum and their suppression on NO release in LPS-induced BV-2 cells and interaction with iNOS” (Bioorg Med Chem Lett, 2017)
